In the NIST ThermoML archive (doi:10.1021/je500092v):
Where “and” joins values, the source holds several entries; their conditions need not be identical. Equal values may be shown once. Numbers after ± are expanded uncertainties.

Legend:
[1] = Liquid, Ebulliometric method (Recirculating still)
[2] = refractive index (Na D-line) (dimensionless); conditions: 293.15 K; 101.33 kPa; Liquid; Standard Abbe refractometry

CCCCO [butan-1-ol]
vapor or sublimation pressure ([1]; 337.8 K): 10 ± 0.23 kPa | vapor or sublimation pressure ([1]; 355.78 K): 25 ± 0.44 kPa | vapor or sublimation pressure ([1]; 371.94 K): 50 ± 0.78 kPa | refractive index [2]: 1.3992 ± 0.0004

C=CCCCC [hex-1-ene]
vapor or sublimation pressure ([1]; 313.15 K): 45.01 ± 0.48 kPa | vapor or sublimation pressure ([1]; 335.15 K): 96.56 ± 0.7 kPa | vapor or sublimation pressure ([1]; 363.15 K): 218.59 ± 1.2 kPa | refractive index [2]: 1.3838 ± 0.0004

CN1CCCC1=O [N-methylpyrrolidone]
vapor or sublimation pressure ([1]; 313.15 K): 0.13 ± 0.13 kPa | vapor or sublimation pressure ([1]; 335.15 K): 0.51 ± 0.13 kPa | vapor or sublimation pressure ([1]; 343.15 K): 0.79 ± 0.26 kPa | vapor or sublimation pressure ([1]; 363.15 K): 2.18 ± 0.26 kPa and 2.17 ± 0.26 kPa | vapor or sublimation pressure ([1]; 380.15 K): 4.98 ± 0.27 kPa | vapor or sublimation pressure ([1]; 399.53 K): 10 ± 0.34 kPa | vapor or sublimation pressure ([1]; 425.91 K): 25 ± 0.61 kPa | vapor or sublimation pressure ([1]; 448.97 K): 50 ± 1.1 kPa | refractive index [2]: 1.4703 ± 0.0004
